From patent US20260053861A1, “CELL COMPOSITIONS AND METHODS OF USING THE SAME” (THE REGENTS OF THE UNIVERSITY OF CALIFORNIA, priority 2022, published 2026)
Counter-ions that a name gives are not always drawn. Like-named read-outs stand apart in the source and are kept apart here.

System: hPSC-SCs
[1] = HTS viability of hPSC-SCs in the presence of 30 mM glucose, Prestwick library, Table S4

| Molecule | z.score.t [1] | z.score.t |
| --- | --- | --- |
| CCN(CC)CCOCCOC(=O)C1(c2ccccc2)CCCC1 [Carbetapentane citrate] | 0.3024 |  |
| C[C@@H]1CC[C@H]2[C@@H](C)C(=O)O[C@@H]3O[C@@]4(C)CC[C@@H]1[C@]32OO4 [Artemisinin] | −0.5919 |  |
| NCc1ccc(S(N)(=O)=O)cc1 [Mafenide hydrochloride] | −0.4019 |  |
| CCCC(=O)Nc1ncnc2c1ncn2[C@@H]1O[C@@H]2COP(=O)(O)O[C@H]2[C@H]1OC(=O)CCC [Bucladesine sodium salt] | 0.7727 |  |
| CCOC(=O)[C@H](CCc1ccccc1)N[C@@H](C)C(=O)N1[C@H](C(=O)O)C[C@@H]2CCC[C@@H]21 [Ramipril] | −0.5351 |  |
| CC(C)NCC(O)c1ccc(O)c(O)c1.Cl (single isomer, unassigned; (-)) [(−)-Isoproterenol hydrochloride] | −0.1043 |  |
| CC(C)[N+]1(C)[C@@H]2CC[C@H]1CC(OC(=O)C(CO)c1ccccc1)C2.[Br-] (stereo partly shown) [Ipratropium bromide] |  | −0.649 |
| CN(C)C/C=C(/c1ccc(Br)cc1)c1cccnc1 [Zimelidine dihydrochloride monohydrate] | 0.4064 |  |
| CCCC(C)(COC(N)=O)COC(=O)NC(C)C (stereo not shown) [Carisoprodol] |  | 0.425 |
| CCC1(CC)C(=O)C=CNC1=O [Pyrithyldione] |  | 0.7158 |
| COc1ccccc1OCC(O)COC(N)=O (stereo not shown) [Methocarbamol] | −1.392 |  |
| Cc1onc(-c2c(F)cccc2Cl)c1C(=O)N[C@@H]1C(=O)N2[C@@H]1SC(C)(C)[C@@H]2C(=O)O [Flucloxacillin sodium] | −1.056 |  |
| CC(=C(CCO)SSCC1CCCO1)N(C=O)Cc1cnc(C)nc1N (stereo in doubt) [Fursultiamine Hydrochloride] |  | 1.483 |
| C[N+]1(C)CCCC(OC(=O)C(O)(c2ccccc2)c2ccccc2)C1 (stereo not shown) [Mepenzolate bromide] | 0.03421 |  |
| CN(C)CCC=C1c2ccccc2C=Cc2ccccc21 [Cyclobenzaprine hydrochloride] | −0.1641 |  |
| O=C(O)CCC(=O)c1ccc(-c2ccccc2)cc1 [Fenbufen] | 1.249 |  |
| COc1ccccc1N1CCN(CCCCNC(=O)c2ccc3ccccc3c2)CC1.Cl.Cl [DO 897/99] |  | −0.4139 |
| Cn1nnnc1SCC1=C(C(=O)O)N2C(=O)[C@@H](NC(=O)[C@H](O)c3ccccc3)[C@H]2SC1 [Cefamandole sodium salt] | −0.7376 |  |
| C[C@H]1[C@H]2CC[C@H]3[C@@H]4CC=C5C[C@@H](N(C)C)CC[C@]5(C)[C@H]4CC[C@]23CN1C [Conessine] | 0.5822 |  |
| C=C[C@H]1CN2CC[C@H]1C[C@H]2[C@H](O)c1ccnc2ccccc12 [(−)-Cinchonidine] | 1.595 |  |
| CN1CCN(C2=Nc3ccccc3Oc3ccc(Cl)cc32)CC1 [Loxapine succinate] | −0.2278 |  |
| N[C@@H]1CONC1=O [D-cycloserine] | 0.9162 |  |
| CCCc1ncc(C[n+]2ccccc2C)c(N)n1 [Amprolium hydrochloride] |  | −1.615 |
| CC(=O)OCC(=O)[C@@]12OC(C)(C)O[C@@H]1C[C@H]1[C@@H]3C[C@H](F)C4=CC(=O)C=C[C@]4(C)[C@@]3(F)[C@@H](O)C[C@@]12C [Fluocinonide] | 0.2803 |  |
| CO[C@H]1/C=C/O[C@@]2(C)Oc3c(C)c(O)c4c(O)c(c(/C=N/N5CCN(C)CC5)c(O)c4c3C2=O)NC(=O)/C(C)=C\C=C\[C@H](C)[C@H](O)[C@@H](C)[C@@H](O)[C@@H](C)[C@H](OC(C)=O)[C@@H]1C [Rifampicin] | 1.139 |  |
| c1ccc(C2CN3CCSC3=N2)cc1 (stereo not shown) [Tetramisole hydrochloride] | −0.3319 |  |

| Molecule | z.score.t [1] | z.score.t |
| --- | --- | --- |
| CCOC(=O)n1ccn(C)c1=S [Carbimazole] | −0.2276 |  |
| N[C@H]1CONC1=O [(S)-(−)-Cycloserine] | −0.3729 |  |
| CO/N=C(\C(=O)N[C@@H]1C(=O)N2C(C(=O)O)=C(C[N+]3(C)CCCC3)CS[C@H]12)c1csc(N)n1 [Cefepime hydrochloride] | −0.9926 |  |
| C[N+](C)(C)CCCCCC[N+](C)(C)C.O.O.[Br-].[Br-] [Hexamethonium dibromide dihydrate] |  | 0.7913 |
| C=C[C@H]1C[N@@]2CC[C@H]1C[C@@H]2[C@@H](O)c1ccnc2ccc(OC)cc12 [Quinidine hydrochloride monohydrate] | −0.6093 |  |
| CCC1(c2ccc(N)cc2)CCC(=O)NC1=O (stereo not shown) [Glutethimide, para-amino] |  | 0.1149 |
| CCN1C[C@]2(COC)CC[C@H](O)[C@]34C1[C@@](O)([C@@H](OC)[C@H]23)[C@@]1(O)C[C@H](OC)[C@H]2C[C@@H]4[C@@H]1[C@H]2OC [Delsoline] |  | 1.566 |
| COc1ccc2cc3[n+](cc2c1OC)CCc1cc2c(cc1-3)OCO2 [Berberine chloride] | 1.018 |  |
| CC(C(=O)O)c1ccc(C(=O)c2ccccc2)s1 (stereo not shown) [Tiaprofenic acid] | 0.04918 |  |
| COc1cc(N)c(Cl)cc1C(=O)NC1CCN(Cc2ccccc2)CC1 [Clebopride maleate] | 1.08 |  |
| Cl.OC(CCN1CCCCC1)(c1ccccc1)C1CCCCC1 (stereo not shown) [Trihexyphenidyl-D, L Hydrochloride] | −1.107 |  |
| O=C(/C=C/c1ccc(O)c(O)c1)O[C@@H]1C[C@](O)(C(=O)O)C[C@@H](O)[C@H]1O [Chlorogenic acid] | 0.888 |  |
| Nc1ncn([C@@H]2O[C@H](CO)[C@@H](O)[C@H]2O)c(=O)n1 [Azacytidine-5] | −2.144 |  |
| N=C(N)NC(=O)Cc1c(Cl)cccc1Cl [Guanfacine hydrochloride] | 0.9047 |  |
| COc1ccn(C)c(=O)c1C#N [Ricinine] |  | 0.8646 |
| COc1cc2nc(N3CCN(C(=O)C4COc5ccccc5O4)CC3)nc(N)c2cc1OC (stereo not shown) [Doxazosin mesylate] | −0.8683 |  |
| CC(NC(C)(C)C)C(=O)c1cccc(Cl)c1 (stereo not shown) [Bupropion hydrochloride] | 2.803 |  |
| CCC(=O)OCC(=O)[C@@]1(OC(=O)CC)[C@@H](C)C[C@H]2[C@@H]3CCC4=CC(=O)C=C[C@]4(C)[C@@]3(Cl)[C@@H](O)C[C@@]21C [Beclomethasone dipropionate] | −0.2136 |  |
| CCOC(=O)C1=C(C)NC(C)=C(C(=O)OC)C1c1cccc(Cl)c1Cl (stereo not shown) [Felodipine] | 0.006455 |  |
| COc1cc(C)nc(-n2nc(C)cc2OC)n1 [Epirizole] | 1.191 |  |
| CC1=CC(=O)C2=C(C)C[C@H](O)[C@@H]3[C@H](OC(=O)[C@H]3C)[C@H]12 [Austricine hydrate] |  | −0.411 |
| CNCCCC12CCC(c3ccccc31)c1ccccc12 [Maprotiline hydrochloride] | −0.865 |  |
| Cn1c(=O)c2c(ncn2CC(O)CO)n(C)c1=O (stereo not shown) [Diprophylline] | 0.7415 |  |
| O=C(CCCN1CCC(n2c(O)nc3ccccc32)CC1)c1ccc(F)cc1 [Benperidol] | 0.1556 |  |
| CCN1CCCC1CNC(=O)c1cc(S(N)(=O)=O)ccc1OC (stereo not shown) [Sulpiride] | 0.1594 |  |
| Clc1ccc(Cn2c(CN3CCCC3)nc3ccccc32)cc1 [Clemizole hydrochloride] | 0.7789 |  |

| Molecule | z.score.t [1] | z.score.t |
| --- | --- | --- |
| CCN(CC)CCNC(=O)c1cc(Br)c(N)cc1OC [Bromopride] | −0.3895 |  |
| C[C@H](CCC(=O)O)[C@H]1CC[C@H]2[C@@H]3CC[C@@H]4C[C@H](O)CC[C@]4(C)[C@H]3CC[C@]12C [Lithocholic acid] | −0.7945 |  |
| CCC1NC(=O)c2cc(S(N)(=O)=O)c(Cl)cc2N1 (stereo not shown) [Quinethazone] | −0.9264 |  |
| COc1ccc2c3c([nH]c2c1)C(C)=NCC3.Cl.O.O [Harmaline hydrochloride dihydrate] |  | 1.306 |
| S(−)Eticlopride hydrochloride | −0.5169 |  |
| [H]/N=C(\N/C(=N/[H])NCCCCCCNC(=N)NC(=N)Nc1ccc(Cl)cc1)Nc1ccc(Cl)cc1 [Chlorhexidine] | 1.056 |  |
| Alverine citrate salt | −1.025 |  |
| CCC1(c2ccccc2)NC(=O)N(C)C1=O (stereo not shown) [Mephenytoin] | −0.9817 |  |
| CO[C@@]1(NC(=O)Cc2cccs2)C(=O)N2C(C(=O)O)=C(COC(N)=O)CS[C@@H]21 [Cefoxitin sodium salt] | 0.6964 |  |
| COC(=O)Nc1nc2ccc(Sc3ccccc3)cc2[nH]1 [Fenbendazole] | −1.607 |  |
| CC1(C)S[C@@H]2[C@H](NC(=O)[C@H](N)c3ccc(O)cc3)C(=O)N2[C@H]1C(=O)O [Amoxicillin] | 1.457 |  |
| CN1CCN2c3ccccc3Cc3ccccc3C2C1 (stereo not shown) [Mianserine hydrochloride] | 0.8279 |  |
| Cn1c(=O)c2[nH]cnc2n(C)c1=O.O [Theophylline monohydrate] |  | −1.123 |
| NC(=O)N1c2ccccc2C=Cc2ccccc21 [Carbamazepine] | 0.8158 |  |
| CCOC1O[C@H]([C@@H](COCc2ccccc2)OCc2ccccc2)[C@H](OCc2ccccc2)[C@H]1O (stereo partly shown) [Tribenoside] | −1.558 |  |
| CCCC1O[C@@H]2C[C@H]3[C@@H]4CCC5=CC(=O)C=C[C@]5(C)[C@H]4[C@@H](O)C[C@]3(C)[C@]2(C(=O)CO)O1 (stereo partly shown) [Budesonide] | 1.74 |  |
| COc1ccc(C(=O)OC2C[C@H]3CC[C@@H](C2)N3C)cc1OC.Cl (stereo partly shown) [Convolamine hydrochloride] | 1.345 |  |
| CC(NCCC(c1ccccc1)c1ccccc1)c1ccccc1 (stereo not shown) [Fendiline hydrochloride] | −1.478 |  |
| C[C@]12CC[C@H]3[C@@H](CC[C@]4(O)C[C@@H](O)CC[C@]34C=O)[C@@]1(O)CC[C@@H]2C1=CC(=O)OC1 [Strophanthidin] |  | −2.4 |
| COC1=C[C@@H]2C3=C([C@@H]2C1=O)[C@@H](NC(C)=O)CCc1cc(OC)c(OC)c(OC)c13 [Lumicolchicine gamma] |  | 1.528 |
| O=C(CCCN1CCC2(CC1)C(=O)NCN2c1ccccc1)c1ccc(F)cc1 [Spiperone] | 0.09999 |  |
| Cc1c(-c2ccccc2)oc2c(C(=O)OCCN3CCCCC3)cccc2c1=O [Flavoxate hydrochloride] | 1.21 |  |
| CC1=C(/C=C/C(C)=C/C=C/C(C)=C\C(=O)O)C(C)(C)CCC1 [Isotretinoin] | 0.4346 |  |
| Cc1cc2c(C(C)C)c(O)c(O)c(C=O)c2c(O)c1-c1c(C)cc2c(C(C)C)c(O)c(O)c(C=O)c2c1O [Gossypol] |  | −2.368 |
